This assay addresses Recombinant AMPK α1/β1/γ1 complex (Homo sapiens (Human), UniProt Q13131+Q9Y478). As to the kind of experiment: In vitro pAMPK1 kinase activation assay (ADP-Glo, SAMS peptide). Format: biochemical. The note with it: AMPK α1/β1/γ1 pre-activated with CAMKK2; 12-point curve; 15 min compound incubation. The protocol:
Compound effect on AMPK enzyme activation was determined in a cell-free format with a 12-point concentration curve. The ADP-Glo detection system was used to determine phosphorylation of a SAMS peptide substrate. Recombinant AMPK α1/β1/γ1 complex was pre-activated by phosphorylation with CAMKK2 followed by incubated with compound for 15 minutes prior to the SAMS phosphorylation reaction. Activity curves and EC50 values were fitted by interpolation to an ATP:ADP standard curve as indicated by the ADP-Glo manufacturer using Prism software.
Background: ADP-Glo first removes unused ATP, then detects ADP through luciferase.
Sequence of Recombinant AMPK α1/β1/γ1 complex (Q13131 whole entry): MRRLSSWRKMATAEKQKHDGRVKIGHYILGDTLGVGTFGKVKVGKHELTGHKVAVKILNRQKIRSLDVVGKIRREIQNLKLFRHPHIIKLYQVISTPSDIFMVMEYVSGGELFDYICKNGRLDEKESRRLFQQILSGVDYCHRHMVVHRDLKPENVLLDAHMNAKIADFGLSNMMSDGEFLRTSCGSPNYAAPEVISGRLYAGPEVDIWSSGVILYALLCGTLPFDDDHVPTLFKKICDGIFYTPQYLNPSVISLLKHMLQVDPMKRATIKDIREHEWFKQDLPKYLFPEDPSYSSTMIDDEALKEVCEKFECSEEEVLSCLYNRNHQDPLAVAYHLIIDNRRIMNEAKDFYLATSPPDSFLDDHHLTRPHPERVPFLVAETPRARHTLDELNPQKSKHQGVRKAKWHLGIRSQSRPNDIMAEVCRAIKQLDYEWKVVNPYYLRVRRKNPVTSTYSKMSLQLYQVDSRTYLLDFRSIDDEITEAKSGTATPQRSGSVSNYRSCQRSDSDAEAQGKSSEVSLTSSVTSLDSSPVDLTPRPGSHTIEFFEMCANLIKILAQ
Sequence of Recombinant AMPK α1/β1/γ1 complex (Q9Y478 whole entry): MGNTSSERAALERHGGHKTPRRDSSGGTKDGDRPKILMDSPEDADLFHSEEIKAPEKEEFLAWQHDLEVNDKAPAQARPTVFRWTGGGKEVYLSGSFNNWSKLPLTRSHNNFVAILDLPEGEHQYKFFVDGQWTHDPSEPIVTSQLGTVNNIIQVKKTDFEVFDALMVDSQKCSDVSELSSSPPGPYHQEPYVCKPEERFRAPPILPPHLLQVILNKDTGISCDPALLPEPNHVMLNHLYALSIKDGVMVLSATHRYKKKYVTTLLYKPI
Sequence of Recombinant AMPK α1/β1/γ1 complex (P54619 whole entry partner): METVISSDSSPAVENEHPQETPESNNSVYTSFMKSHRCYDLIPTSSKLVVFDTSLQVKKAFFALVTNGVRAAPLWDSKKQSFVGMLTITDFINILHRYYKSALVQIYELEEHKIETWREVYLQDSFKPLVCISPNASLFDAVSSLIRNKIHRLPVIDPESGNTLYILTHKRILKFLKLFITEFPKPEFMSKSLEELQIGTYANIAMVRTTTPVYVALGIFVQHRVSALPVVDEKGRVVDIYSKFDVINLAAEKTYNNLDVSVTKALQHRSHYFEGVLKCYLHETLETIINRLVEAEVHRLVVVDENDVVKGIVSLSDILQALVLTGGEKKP
What is called EC50 is the concentration at which the effect is half-maximal. `O=S(=O)(NC[C@H](O)[C@@H](O)[C@H](O)[C@H](O)CO)c1ccc(-c2ccc(-c3nc4nc(O[C@@H]5CO[C@H]6[C@@H]5OC[C@H]6O)[nH]c4cc3Cl)cc2)cc1` [Compound 3, 4′-(6-chloro-2-(((3R,3aR,6R,6aR)-6-hydroxyhexahydrofuro[3,2-b]furan-3-yl)oxy)-1H-imidazo [4,5-b]pyridin-5-yl)-N-((2S,3R,4R,5R)-2,3,4,5,6-pentahydroxyhexyl)-[1,1′-biphenyl]-4-sulfonamide]: the EC50 came to 0.09 nM.

`O=C(NCCS(=O)(=O)O)c1ccc(-c2ccc(-c3nc4nc(O[C@@H]5CO[C@H]6[C@@H]5OC[C@H]6O)[nH]c4cc3Cl)cc2)cc1` [Compound 5, 2-(4′-(6-chloro-2-(((3R,3aR,6R,6aR)-6-hydroxyhexahydrofuro[3,2-b]furan-3-yl)oxy)-1H-imidazo[4,5-b]pyridin-5-yl)-[1,1′-biphenyl]-4-ylcarboxamido)ethanesulfonic acid]: the EC50 amounted to 0.86 nM.

`O=C(NCCCS(=O)(=O)O)c1ccc(-c2ccc(-c3nc4nc(O[C@@H]5CO[C@H]6[C@@H]5OC[C@H]6O)[nH]c4cc3Cl)cc2)cc1` [Compound 6, 3-(4′-(6-chloro-2-(((3R,3aR,6R,6aR)-6-hydroxyhexahydrofuro[3,2-b]furan-3-yl)oxy)-1H-imidazo[4,5-b]pyridin-5-yl)-[1,1′-biphenyl]-4-carboxamido)propane-1-sulfonic acid]: the EC50 amounted to 0.62 nM.

With `O=C(NCC(CS(=O)(=O)O)c1ccc(Cl)cc1)c1ccc(-c2ccc(-c3nc4nc(O[C@@H]5CO[C@H]6[C@@H]5OC[C@H]6O)[nH]c4cc3Cl)cc2)cc1` (stereo partly drawn) [Compound 7, 3-(4′-(6-chloro-2-(((3R,3aR,6R,6aR)-6-hydroxyhexahydrofuro[3,2-b]furan-3-yl)oxy)-1H-imidazo[4,5-b]pyridin-5-yl)-[1,1′-biphenyl]-4-carboxamido)-2-(4-chlorophenyl)propane-1-sulfonic acid], the EC50 was found to be 1.22 nM.

For the molecule `CN(CCS(=O)(=O)O)C(=O)c1ccc(-c2ccc(-c3nc4nc(O[C@@H]5CO[C@H]6[C@@H]5OC[C@H]6O)[nH]c4cc3Cl)cc2)cc1` [Compound 8, 2-(4′-(6-chloro-2-(((3R,3aR,6R,6aR)-6-hydroxyhexahydrofuro[3,2-b]furan-3-yl)oxy)-1H-imidazo[4,5-b]pyridin-5-yl)-N-methyl-[1,1′-biphenyl]4-carboxamido)ethane-1-sulfonic acid], the EC50 came out at 1.78 nM.

On to `O=P(O)(O)c1ccc(-c2ccc(-c3nc4nc(O[C@H]5CO[C@H](CO)[C@@H](O)C5)[nH]c4cc3Cl)cc2)cc1` [Compound 12, (4′-(6-chloro-2-(((3R,5S,6R)-5-hydroxy-6-(hydroxymethyl)tetrahydro-2H-pyran-3-yl)oxy)-1H-imidazo[4,5b]pyridin-5-yl)-[1,1′-biphenyl]-4-yl)phosphonic acid], for which the EC50 came out at 152 nM.

Regarding `O=C(NCCCP(=O)(O)O)c1ccc(-c2ccc(-c3nc4nc(O[C@@H]5CO[C@H]6[C@@H]5OC[C@H]6O)[nH]c4cc3Cl)cc2)cc1` [Compound 14, (3-(4′-(6-chloro-2-(((3R,3aR,6R,6aR)-6-hydroxyhexahydrofuro[3,2-b]furan-3-yl)oxy)-1H-imidazo[4,5-b]pyridin-5-yl)-[1,1′-biphenyl]-4-carboxamido)propyl)phosphonic acid], the EC50 turned out to be 0.5 nM.

Turning to `O=C(O)C(O)CNCc1ccc(-c2ccc(-c3nc4nc(O[C@@H]5CO[C@H]6[C@@H]5OC[C@H]6O)[nH]c4cc3Cl)cc2)cc1` (stereo partly drawn) [Compound 22, 3-(((4′-(6-chloro-2-(((3R,3aR,6R,6aR)-6-hydroxyhexahydrofuro[3,2-b]furan-3-yl)oxy)-1H-imidazo[4,5-b]pyridin-5-yl)-[1,1′-biphenyl]-4-yl)methyl)amino)-2-hydroxypropanoic acid], the EC50 turned out to be 0.63 nM.

Take `C[N+](C)(C)CCNC(=O)c1ccc(-c2ccc(-c3cc4nc(O[C@@H]5CO[C@H]6[C@@H]5OC[C@H]6O)[nH]c4cc3Cl)cc2)cc1` [Compound 29, 2-(4′-(6-chloro-2-(((3R,3aR,6R,6aR)-6-hydroxyhexahydrofuro[3,2-b]furan-3-yl)oxy)-1H-benzo [d]imidazol-5-yl)-[1,1′-biphenyl]-4-carboxamido)-N,N,N-trimethylethan-1-aminium bicarbonate]: the EC50 was 0.56 nM.

As to `O=C(NC[C@H](O)[C@@H](O)[C@H](O)[C@H](O)CO)c1ccc(-c2ccc(-c3cc4nc(O[C@@H]5CO[C@H]6[C@@H]5OC[C@H]6O)[nH]c4cc3Cl)cc2)cc1` [Compound 30, 4′-(6-chloro-2-(((3R,3aR,6R,6aR)-6-hydroxyhexahydrofuro[3,2-b]furan-3-yl)oxy)-1H-benzo[d]imidazol-5-yl)-N-((2S,3R,4R,5R)-2,3,4,5,6-pentahydroxyhexyl)-[1,1′-biphenyl]-4-carboxamide], the concentration for a half-maximal effect (EC50) came to 0.65 nM.

Regarding `OCC(CO)(CO)NCc1ccc(-c2ccc(-c3cc4nc(O[C@@H]5CO[C@H]6[C@@H]5OC[C@H]6O)[nH]c4cc3Cl)cc2)cc1` [Compound 36, 2-(((4′-(6-chloro-2-(((3R,3aR,6R,6aR)-6-hydroxyhexahydrofuro[3,2-b]furan-3-yl)oxy)-1H-benzo[d]imidazol-5-yl)-[1,1′-biphenyl]-4-yl)methyl)amino)-2-(hydroxymethyl)propane-1,3-diol], the EC50 was 0.84 nM.

In the case of `O=C(CCCNCc1ccc(-c2ccc(-c3cc4nc(O[C@@H]5CO[C@H]6[C@@H]5OC[C@H]6O)[nH]c4cc3Cl)cc2)cc1)NCCO` [Compound 37, 4-(((4′-(6-chloro-2-(((3R,3aR,6R,6aR)-6-hydroxyhexahydrofuro[3,2-b]furan-3-yl)oxy)-1H-benzo[d]imidazol-5-yl)-[1,1′-biphenyl]-4-yl)methyl)amino)-N-(2-hydroxyethyl)butanamide], the EC50 was 3.6 nM.

On to `O=C(CCCNCc1ccc(-c2ccc(-c3cc4nc(O[C@@H]5CO[C@H]6[C@@H]5OC[C@H]6O)[nH]c4cc3Cl)cc2)cc1)NC(CO)CO` [Compound 38, 4-(((4′-(6-chloro-2-(((3R,3aR,6R,6aR)-6-hydroxyhexahydrofuro[3,2-b]furan-3-yl)oxy)-1H-benzo[d]imidazol-5-yl)-[1,1′-biphenyl]-4-yl)methyl)amino)-N-(1,3-dihydroxypropan-2-yl)butanamide], for which the EC50 was determined as 2.4 nM.

On to `O=P(O)(O)c1ccc(-c2ccc(-c3nc4nc(O[C@H]5CO[C@H](CO)[C@H]5O)[nH]c4cc3Cl)cc2)cc1` [Compound 45, (4′-(6-chloro-2-(((3S,4R,5R)-4-hydroxy-5-(hydroxymethyl)tetrahydrofuran-3-yl)oxy)-1H-imidazo[4,5-b]pyridin-5-yl)-[1,1′-biphenyl]-4-yl)phosphonic acid], for which the EC50 was > 10000 nM.

As for `CN(CCOCCO)C(=O)c1ccc(-c2ccc(-c3cc4nc(O[C@@H]5CO[C@H]6[C@@H]5OC[C@H]6O)[nH]c4cc3Cl)cc2)cc1` [Compound 48, 4′-(6-chloro-2-(((3R,3aR,6R,6aR)-6-hydroxyhexahydrofuro[3,2-b]furan-3-yl)oxy)-1H-benzo [d]imidazol-5-yl)-N-(2-(2-hydroxyethoxy)ethyl)-N-methyl-[1,1′-biphenyl]-4-carboxamide], the EC50 was 1.16 nM.

In the case of `O[C@@H]1CO[C@H]2[C@@H]1OC[C@H]2Oc1nc2cc(-c3ccc(-c4ccc(CN5CCNCC5)cc4)cc3)c(Cl)cc2[nH]1` [Compound 49, (3R,3aR,6R,6aR)-6-((6-chloro-5-(4′-(piperazin-1-ylmethyl)-[1,1′-biphenyl]-4-yl)-1H-benzo[d]imidazol-2-yl)oxy)hexahydrofuro[3,2-b]furan-3-ol], the EC50 was found to be 1.76 nM.

With `OCCOCC1CN(Cc2ccc(-c3ccc(-c4cc5nc(O[C@@H]6CO[C@H]7[C@@H]6OC[C@H]7O)[nH]c5cc4Cl)cc3)cc2)C1` [Compound 50], the EC50 was 1.46 nM.

On to `OCCN1CCN(Cc2ccc(-c3ccc(-c4nc5nc(O[C@@H]6CO[C@H]7[C@@H]6OC[C@H]7O)[nH]c5cc4Cl)cc3)cc2)CC1` [Compound 51, (3R,3aR,6R,6aR)-6-((6-chloro-5-(4′-((4-(2-hydroxyethyl)piperazin-1-yl)methyl)-[1,1′-biphenyl]-4-yl)-1H-imidazo[4,5-b]pyridin-2-yl)oxy)hexahydrofuro[3,2-b]furan-3-ol], for which the EC50 stood at 0.72 nM.

`OCC1(CO)CN(Cc2ccc(-c3ccc(-c4nc5nc(O[C@@H]6CO[C@H]7[C@@H]6OC[C@H]7O)[nH]c5cc4Cl)cc3)cc2)C1` [Compound 52, (1-((4′-(6-chloro-2-(((3R,3aR,6R,6aR)-6-hydroxyhexahydrofuro[3,2-b]furan-3-yl)oxy)-1H-imidazo[4,5-b]pyridin-5-yl)-[1,1′-biphenyl]-4-yl)methyl)azetidine-3,3-diyl)dimethanol]: the EC50 was 0.81 nM.

For `OCC(CO)(CO)NCc1ccc(-c2ccc(-c3nc4nc(O[C@@H]5CO[C@H]6[C@@H]5OC[C@H]6O)[nH]c4cc3Cl)cc2)cc1` [Compound 53, 2-(((4′-(6-chloro-2-(((3R,3aR,6R,6aR)-6-hydroxyhexahydrofuro[3,2-b]furan-3-yl)oxy)-1H-imidazo[4,5-b]pyridin-5-yl)-[1,1′-biphenyl]-4-yl)methyl)amino)-2-(hydroxymethyl)propane-1,3-diol], the EC50 is 0.23 nM.

In the case of `OCC1(CO)CCN(Cc2ccc(-c3ccc(-c4nc5nc(O[C@@H]6CO[C@H]7[C@@H]6OC[C@H]7O)[nH]c5cc4Cl)cc3)cc2)CC1` [Compound 54, (1((4′-(6-chloro-2-(((3R,3aR,6R,6aR)-6-hydroxyhexahydrofuro[3,2-b]furan-3-yl)oxy)-1H-imidazo[4,5-b]pyridin-5-yl)-[1,1′-biphenyl]-4-yl)methyl)piperidine-4,4-diyl)dimethanol], the EC50 came out at 0.57 nM.

For `O[C@@H]1CCN(Cc2ccc(-c3ccc(-c4cc5nc(O[C@@H]6CO[C@H]7[C@@H]6OC[C@H]7O)[nH]c5cc4Cl)cc3)cc2)C1` [Compound 59, (R)-1-((4′-(6-chloro-2-(((3R,3aR,6R,6aR)-6-hydroxyhexahydrofuro[3,2-b]furan-3-yl)oxy)-1H-benzo[d]imidazol-5-yl)-[1,1′-biphenyl]-4-yl)methyl)pyrrolidin-3-ol], the EC50 was 1.04 nM.

These data come from patent US11407768B2, “AMPK activators” (Kallyope, Inc., priority 2020, dated 2022).
